Test results taken from PubChem BioAssay AID256 (DTP/NCI, 2004).
Where “and” joins values, the source holds several entries; their conditions need not be identical. Identical values can stand only once. Inconclusive results and toxic doses are left out. The calls were made as follows: active = survival T/C of 150% or more; inactive = T/C below 125% in these data.

Test system: CD2F1 mice, L1210 leukemia ip, survival T/C
Test: NCI In Vivo Anticancer Drug Screen. Data for tumor model L1210 Leukemia (intraperitoneal) in CD2F1 (CDF1) mice
Conditions: higher = longer survival
Summary of the method: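 Read-out first: treated-group measurement over vehicle-control measurement, expressed as a ratio. Animals bore a transplanted tumor line and were dosed with compound or vehicle.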

[1] = endpoint: mean survival time, dose: 100.0 mg/kg/injection, schedule: Q01DX009 (ip), vehicle: saline with Tween-80
[2] = endpoint: mean survival time, dose: 100.0 mg/kg/injection, schedule: Q04DX003 (ip), vehicle: saline with Tween-80
[3] = endpoint: mean survival time, dose: 200.0 mg/kg/injection, schedule: Q01DX009 (ip), vehicle: saline with Tween-80
[4] = endpoint: mean survival time, dose: 200.0 mg/kg/injection, schedule: Q04DX003 (ip), vehicle: saline with Tween-80
[5] = endpoint: mean survival time, dose: 400.0 mg/kg/injection, schedule: Q01DX009 (ip), vehicle: saline with Tween-80
[6] = endpoint: mean survival time, dose: 400.0 mg/kg/injection, schedule: Q04DX003 (ip), vehicle: saline with Tween-80
[7] = endpoint: mean survival time, dose: 100.0 mg/kg/injection, schedule: Q01DX009 (ip), vehicle: Klucel (hydroxypropylcellulose) (HPC)
[8] = endpoint: mean survival time, dose: 200.0 mg/kg/injection, schedule: Q01DX009 (ip), vehicle: Klucel (hydroxypropylcellulose) (HPC)
[9] = endpoint: mean survival time, dose: 400.0 mg/kg/injection, schedule: Q01DX009 (ip), vehicle: Klucel (hydroxypropylcellulose) (HPC)
[10] = endpoint: mean survival time, dose: 5.0 mg/kg/injection, schedule: Q01DX009 (ip), vehicle: saline
[11] = endpoint: mean survival time, dose: 10.0 mg/kg/injection, schedule: Q01DX009 (ip), vehicle: saline
[12] = endpoint: mean survival time, dose: 150.0 mg/kg/injection, schedule: Q01DX009 (ip), vehicle: saline with Tween-80
[13] = endpoint: mean survival time, dose: 50.0 mg/kg/injection, schedule: Q01DX009 (ip), vehicle: saline with Tween-80

Measured: T/C

COc1cc([N+](=O)[O-])ccc1NC(=O)N(c1ccccc1)C(C)C
inactive: endpoint: mean survival time, dose: 100.0 mg/kg/injection, schedule: Q01DX001 (ip), vehicle: saline with Tween-80 101 % of control and 112 % of control | [1] 98 % of control and 105 % of control | endpoint: mean survival time, dose: 100.0 mg/kg/injection, schedule: Q04DX002 (ip), vehicle: saline with Tween-80 96 % of control | [2] 101 % of control | endpoint: mean survival time, dose: 200.0 mg/kg/injection, schedule: Q01DX001 (ip), vehicle: saline with Tween-80 101 % of control and 104 % of control | [3] 94 % of control and 95 % of control | endpoint: mean survival time, dose: 200.0 mg/kg/injection, schedule: Q04DX002 (ip), vehicle: saline with Tween-80 98 % of control | [4] 95 % of control | endpoint: mean survival time, dose: 400.0 mg/kg/injection, schedule: Q01DX001 (ip), vehicle: saline with Tween-80 95 % of control and 97 % of control | [5] 94 % of control and 101 % of control | endpoint: mean survival time, dose: 400.0 mg/kg/injection, schedule: Q04DX002 (ip), vehicle: saline with Tween-80 98 % of control | [6] 103 % of control

CN(N=O)c1ccc(CC2CCc3ccccc32)cc1 (stereo not drawn)
inactive: [7] 93 % of control | [8] 98 % of control | [9] 101 % of control

CCOC(=O)N1CCc2nc3ccccc3cc21
inactive: endpoint: mean survival time, dose: 50.0 mg/kg/injection, schedule: Q01DX001 (ip), vehicle: other 106 % of control | endpoint: mean survival time, dose: 100.0 mg/kg/injection, schedule: Q01DX001 (ip), vehicle: other 109 % of control | endpoint: mean survival time, dose: 200.0 mg/kg/injection, schedule: Q01DX001 (ip), vehicle: other 97 % of control

CN(C)N=C1CCCC1
inactive: endpoint: mean survival time, dose: 50.0 mg/kg/injection, schedule: Q04DX003 (ip), vehicle: saline with Tween-80 101 % of control | endpoint: mean survival time, dose: 75.0 mg/kg/injection, schedule: Q01DX001 (ip), vehicle: saline 98 % of control | [2] 95 % of control | endpoint: mean survival time, dose: 150.0 mg/kg/injection, schedule: Q01DX001 (ip), vehicle: saline 100 % of control | [4] 100 % of control

CCN(CC)c1ccc(N)cc1
inactive: [10] 96 % of control | endpoint: mean survival time, dose: 5.0 mg/kg/injection, schedule: Q04DX003 (ip), vehicle: saline 96 % of control | [11] 96 % of control | endpoint: mean survival time, dose: 10.0 mg/kg/injection, schedule: Q04DX003 (ip), vehicle: saline 97 % of control | endpoint: mean survival time, dose: 20.0 mg/kg/injection, schedule: Q01DX009 (ip), vehicle: saline 100 % of control | endpoint: mean survival time, dose: 20.0 mg/kg/injection, schedule: Q04DX003 (ip), vehicle: saline 94 % of control

O=C(Nc1cc([N+](=O)[O-])ccc1O)C(O)c1ccccc1 (stereo not drawn)
inactive: endpoint: mean survival time, dose: 12.5 mg/kg/injection, schedule: Q01DX009 (ip), vehicle: other 95 % of control | endpoint: mean survival time, dose: 25.0 mg/kg/injection, schedule: Q01DX009 (ip), vehicle: other 89 % of control | endpoint: mean survival time, dose: 50.0 mg/kg/injection, schedule: Q01DX009 (ip), vehicle: other 86 % of control | endpoint: mean survival time, dose: 100.0 mg/kg/injection, schedule: Q01DX009 (ip), vehicle: other 91 % of control | endpoint: mean survival time, dose: 200.0 mg/kg/injection, schedule: Q01DX009 (ip), vehicle: other 91 % of control

COC(=O)C(NC(C)=O)C(O)Cl (stereo not drawn)
inactive: endpoint: mean survival time, dose: 100.0 mg/kg/injection, schedule: Q04DX003 (ip), vehicle: saline 102 % of control | endpoint: mean survival time, dose: 200.0 mg/kg/injection, schedule: Q04DX003 (ip), vehicle: saline 100 % of control | endpoint: mean survival time, dose: 400.0 mg/kg/injection, schedule: Q04DX003 (ip), vehicle: saline 98 % of control

CCC[CH2][Sn]([CH2]CC)([CH2]CCC)[O]C(=O)c1ccccc1
inactive: endpoint: mean survival time, dose: 0.78 mg/kg/injection, schedule: Q01DX009 (ip), vehicle: saline with Tween-80 104 % of control | endpoint: mean survival time, dose: 1.56 mg/kg/injection, schedule: Q01DX009 (ip), vehicle: saline with Tween-80 107 % of control

CN(N=O)C(=O)Nc1ccc(C2CC(=O)N(C)C2=O)cc1 (stereo not drawn)
inactive: endpoint: mean survival time, dose: 12.5 mg/kg/injection, schedule: Q01DX001 (ip), vehicle: distilled water + Tween-80 113 % of control | endpoint: mean survival time, dose: 25.0 mg/kg/injection, schedule: Q01DX001 (ip), vehicle: distilled water + Tween-80 101 % of control and 106 % of control | endpoint: mean survival time, dose: 50.0 mg/kg/injection, schedule: Q01DX001 (ip), vehicle: distilled water + Tween-80 108 % of control and 112 % of control | endpoint: mean survival time, dose: 100.0 mg/kg/injection, schedule: Q01DX001 (ip), vehicle: distilled water + Tween-80 113 % of control | endpoint: mean survival time, dose: 200.0 mg/kg/injection, schedule: Q01DX001 (ip), vehicle: distilled water + Tween-80 112 % of control

O=C(COc1ccc(Cl)c(Cl)c1)NCc1cccc([N+](=O)[O-])c1
inactive: endpoint: mean survival time, dose: 75.0 mg/kg/injection, schedule: Q01DX001 (ip), vehicle: saline with Tween-80 93 % of control | endpoint: mean survival time, dose: 150.0 mg/kg/injection, schedule: Q01DX001 (ip), vehicle: saline with Tween-80 88 % of control | endpoint: mean survival time, dose: 300.0 mg/kg/injection, schedule: Q01DX001 (ip), vehicle: saline with Tween-80 86 % of control

C/C=C/CNc1ccc(C)cc1
inactive: endpoint: mean survival time, dose: 66.0 mg/kg/injection, schedule: Q01DX009 (ip), vehicle: saline with Tween-80 98 % of control | [1] 100 % of control | [2] 103 % of control | [12] 102 % of control

CCOP(=O)(N1CC1(C)C)N1CC1(C)C (stereo not drawn)
active: endpoint: mean survival time, dose: 30.0 mg/kg/injection, schedule: Q01DX009 (ip), vehicle: saline 162 % of control | endpoint: mean survival time, dose: 50.0 mg/kg/injection, schedule: Q01DX009 (ip), vehicle: saline 225 % of control | endpoint: mean survival time, dose: 80.0 mg/kg/injection, schedule: Q01DX009 (ip), vehicle: saline 307 % of control
inactive: [10] 104 % of control | [11] 114 % of control | endpoint: mean survival time, dose: 120.0 mg/kg/injection, schedule: Q01DX009 (ip), vehicle: saline 102 % of control

CCCCCCCC1C(=O)OC2CC3C(C)=CC(=O)C(O)C3(C)C3C4(O)OCC23C1C(C)C4O (stereo not drawn)
inactive: endpoint: median survival time, dose: 2.5 mg/kg/injection, schedule: Q01DX005 (ip), vehicle: Klucel (hydroxypropylcellulose) (HPC) 109 % of control | endpoint: median survival time, dose: 5.0 mg/kg/injection, schedule: Q01DX005 (ip), vehicle: Klucel (hydroxypropylcellulose) (HPC) 106 % of control | endpoint: median survival time, dose: 10.0 mg/kg/injection, schedule: Q01DX005 (ip), vehicle: Klucel (hydroxypropylcellulose) (HPC) 102 % of control | endpoint: median survival time, dose: 20.0 mg/kg/injection, schedule: Q01DX005 (ip), vehicle: Klucel (hydroxypropylcellulose) (HPC) 108 % of control

O=C(Nc1ccccc1C(F)(F)F)n1c(=S)[nH]c2cc([N+](=O)[O-])ccc21
inactive: [13] 90 % of control | [1] 105 % of control | [3] 94 % of control

N#CN=C([S-])[S-].N#CN=C([S-])[S-].[Cu]
inactive: endpoint: mean survival time, dose: 12.5 mg/kg/injection, schedule: Q04DX003 (ip), vehicle: acetone 93 % of control | endpoint: mean survival time, dose: 25.0 mg/kg/injection, schedule: Q04DX003 (ip), vehicle: acetone 94 % of control

CC(=O)Oc1ccc(/C=N/NC(N)=S)nc1
active: endpoint: mean survival time, dose: 37.5 mg/kg/injection, schedule: Q01DX009 (ip), vehicle: saline with Tween-80 160 % of control | endpoint: mean survival time, dose: 75.0 mg/kg/injection, schedule: Q01DX009 (ip), vehicle: saline with Tween-80 152 % of control | [12] 165 % of control

Cc1ccc(NC(=O)c2ccccc2C(=O)O)cc1C
inactive: [1] 98 % of control | [2] 100 % of control | [3] 95 % of control | [4] 101 % of control | [5] 94 % of control | [6] 103 % of control

Cc1ccc(S(=O)(=O)NC(=S)S)cc1
inactive: endpoint: mean survival time, dose: 12.5 mg/kg/injection, schedule: Q01DX009 (ip), vehicle: saline with Tween-80 102 % of control and 110 % of control | endpoint: mean survival time, dose: 25.0 mg/kg/injection, schedule: Q01DX009 (ip), vehicle: saline with Tween-80 115 % of control and 103 % of control | [13] 110 % of control and 112 % of control | [1] 113 % of control and 103 % of control | [3] 105 % of control and 111 % of control | [5] 105 % of control and 109 % of control

CC1=C(N2CC2C)C(=O)c2c(COC(N)=O)c3n(c2C1=O)CC1NC31 (stereo not drawn)
inactive: endpoint: mean survival time, dose: 2.5 mg/kg/injection, schedule: Q01DX001 (ip), vehicle: distilled water + Tween-80 111 % of control | endpoint: mean survival time, dose: 5.0 mg/kg/injection, schedule: Q01DX001 (ip), vehicle: distilled water + Tween-80 101 % of control | endpoint: mean survival time, dose: 10.0 mg/kg/injection, schedule: Q01DX001 (ip), vehicle: distilled water + Tween-80 111 % of control | endpoint: mean survival time, dose: 20.0 mg/kg/injection, schedule: Q01DX001 (ip), vehicle: distilled water + Tween-80 122 % of control

Cc1ccc(S(=O)(=O)NC2CCC(C(=O)O)CC2)cc1 (stereo not drawn)
inactive: [7] 103 % of control | [8] 103 % of control | [9] 92 % of control
